Measured values taken from patent US11013219B2, “Metabolism-based drug screening platform in bioengineered zebrafish” (Path Therapeutics, Inc., priority 2014, dated 2021).

Assays:
park2 morphants = assay: Seahorse basal respiration, park2 morphants (Parkinson's Disease model); type: in vivo, zebrafish; settings: park2-MO
Protocol: (§1) Next, all positive hits were assayed for improve bioenergetics using Seahorse bioanalyzer (Seahorse, Inc). Briefly, morphant zebrafish were seeded into 24-well Islet Flux plates (Seahorse) and incubated with compound or vehicle for 10 minutes prior to analysis. Complete mitochondrial profile was assessed for each individual larvae. Drugs that improved bioenergetics by 40% were considered candidate drugs.
(§2) Morpholinos directed to scn1a (epilepsy), park2 (neurodegenerative disease), idh1 (brain tumors (astrocytoma/oligodendrogliomas), cdkn2b (oligodendroglioma), h3f3a (oligodendroglioma), snf5 (smarcbla in zebrafish; Atypical Teratoid/Rhabdoid)), and shank3 (Autism Spectrum Disorder) were created and zebrafish larvae exposed as detailed in Example 3.

kcna1 morphants = assay: Drug-discovery platform (locomotor screen, then Seahorse), kcna1 morphant genetic model; type: in vivo, zebrafish; settings: blinded study
Protocol: (§3) 10 mM stock solutions of drugs in DMSO were stored at −80° C. and on the day of assay were diluted in E3 medium to a final concentration of 20 μM. For behavioral assays and Seahorse bioenergetics, 20 μM final concentration was used. Adult wild-type TL zebrafish were raised at the Kurrasch Aquatic Research Laboratory at the University of Calgary under standard conditions (28° C., 14 h light/10 h dark cycle) on a recirculating water system.
(§4) Embryos were obtained by natural spawning from mating pairs, screened for viability and for kcna1 and scn1a morpholino models, embryos were injected with either the kcna1- or scn1a-targeting morpholino at the one cell stage. The embryos were sorted for uptake of the morpholino four hours post-injection and seeded to 96 well plates, wrapped in aluminum foil (i.e., raised in the dark), maintained in a non-CO2 incubator at 28.5° C. until 5 dpf.
(§5) On the day of assay, for the kcna1 and scn1a morpholino models, fish were habituated for 20 minutes under 100% light treated with 20 μm of drugs for 20 minutes, and then assayed for locomotor activity in dark for 20 minutes in the zebrabox (Viewpoint Lifesciences, Lyon, Fr). Larval locomotor activity was analyzed using Zebralab V3 software (Viewpoint Lifesciences, Lyon, Fr). For the PTZ model, at 5 dpf, fish were treated with 10 mM PTZ for 10 minutes and then with 20 μM of drugs for 20 minutes under ambient light, and then assayed for locomotor activity under 100% light for 20 minutes in the zebrabox (Viewpoint Lifesciences, Lyon, Fr). Larval locomotor activity was analyzed using Zebralab V3 software (Viewpoint Lifesciences, Lyon, France).
(§6) For the Seahorse bioenergetics measurements, microinjected kcna1 or scn1a morphants or WT zebrafish were maintained in 96 well plates as previously described. XF24 extracellular flux assay plates (Seahorse Bioscience; Massachusetts), were hydrated overnight with XF Calibrant (pH 7.4). […]

scn1a morphants [1] = assay: Drug-discovery platform (locomotor screen, then Seahorse), scn1a morphant genetic model; type: in vivo, zebrafish; settings: blinded study
Protocol: as §3, §4, §5, §6

kcna1 mutants = assay: Seahorse basal respiration, kcna1 genetic mutant larvae; type: in vivo, zebrafish; settings: larvae with increased basal respiration washed with PBS and treated
Protocol: This example confirms that the results of drug screens using zebrafish morphants are the same in zebrafish bearing corresponding germline mutations. kcna1^+/− zebrafish were generated as described in Example 1. Heterozygous kcna1^+/− F1s were incrossed and the offspring examined in a behavioral monitoring chamber (Zebralab). We assume ¾ of the progeny are WT or heterozygotes and ¼ are mutants.
Next, a similar experiment was conducted to confirm that kcna1 mutants display a similar phenotype for mitochondrial function (e.g., increased mitochondrial function). Larvae were seeded into 24-well plates and assayed in the Seahorse machine for altered bioenergetics as discussed above. […] Increased basal respiration levels in approximately 25% of the embryos were also detected, as would be expected for a homozygous recessive mutation. […] Genotype was subsequently confirmed by qPCR (FIG. 9D).

[2] = system: kcna1 zebrafish morphants; assay: Behavioral hyperactivity (locomotion) assay, kcna1 morphants; type: in vivo; settings: larvae 5 days post fertilization; 10 minutes preincubation, assayed 20 minutes
Protocol: This Example utilizes the drug screening assay disclosed herein using morpholino-injected embryos to transiently knockdown genes of interest. Here, we compare three “epileptic” models for phenotypes in the behavioral assay: pharmacological-induction model (PTZ) and two genetic knockdown models (kcna1 and scn1a morphants).
Larvae were treated with morpholinos to kcna1 and scn1a as described above.
Zebrafish larvae (5 days post fertilization) were seeded into 96 well microliter plates containing vehicle solution and monitored for 20 minutes for hyperactivity. Morphants and WT zebrafish were exposed to drug for 10 minutes preincubation and then assayed for changes in hyperactivity for 20 minutes (Zebralab box). Drugs that decreased hyperactivity behavior by 40% in morphants were identified as “positive hits.”
These positive hits were then verified by conducting a dose-response relationship using hyperactivity as readout.

kcna1 morphant zebrafish = assay: Seahorse bioenergetic analysis, kcna1 morphants; type: in vivo; settings: Seahorse Bioanalyzer; for effect on elevated basal respiration in kcna1 morphant larvae: 24-well plate
Excerpt: (§7) One exemplary protocol for measuring oxygen consumption rates (OCR) using Extracellular Flux Analyzer (Seahorse Bioscience, Billerica Mass.) is described below. First, sensor cartridges are hydrated in XF Calibrant Solution in 24-well cell culture microplates overnight at 28.5 C. Prior to experiment, injection ports are filled with appropriate treatments and loaded into XH24 instrument. Staged zebrafish embryos (3 days post fertilization used here) are individually placed in 20 of the 24 wells (4 wells serve as controls) on the islet microplate filled with E3 buffer and islet plate capture screens are placed on top to keep living zebrafish from moving during experiment. Plates are loaded into the instrument and six measurement cycles were taken to establish basal rates, which were then followed by treatment injections and 18 additional measurement cycles. OCRs were calculated at cycles five and six and then averaged to create the basal respiration. FCCP treatment was used to measure maximum OCR and oligomycin was used to measure minimum OCR.
as §1
FIG. 4 provides workflow and results of bioenergetic analyses in a hyperactive zebrafish. […] The plates were loaded into XFe24 Seahorse Bioanalyzer. Basal, maximal, non-mitochondrial, and mitochondrial cellular respiration were measured.

[3] = system: PTZ-induced hyperactive zebrafish; assay: Seahorse bioenergetic analysis, PTZ-treated larvae; type: in vivo; settings: Seahorse Bioanalyzer
Excerpt: as §7, with “FCCP treatment was used to measure maximum OCR and oligomycin was used to measure minimum OCR.” left out
Next, all positive hits were assayed for improve bioenergetics using Seahorse bioanalyzer (Seahorse, Inc). […] Complete mitochondrial profile was assessed for each individual larvae. […]
FIG. 4 provides workflow and results of bioenergetic analyses in a hyperactive zebrafish. […] Basal, maximal, non-mitochondrial, and mitochondrial cellular respiration were measured.

scn1a morphants [4] = assay: Seahorse basal respiration, scn1a morphants; type: in vivo; settings: scn1a-MO zebrafish
Protocol: as §1, §2

shank3 morphants = assay: Seahorse basal respiration, shank3 morphants (ASD and schizophrenia model); type: in vivo, zebrafish; settings: shank3-MO
Protocol: as §1, §2

cdkn2b morphants = assay: Seahorse basal respiration, cdkn2b morphants (glioblastoma model); type: in vivo, zebrafish; settings: cdkn2b-MO
Protocol: as §1, §2

smarcbla morphants = assay: Seahorse basal respiration, smarcbla morphants (AT/RT model); type: in vivo, zebrafish; settings: smarcbla-MO
Protocol: as §1, with “larvae.” for “larvae. Drugs that improved bioenergetics by 40% were considered candidate drugs.”
as §2

Kv1.1 null mice = assay: Video EEG seizure recording in Kv1.1 rodent model; type: in vivo; settings: three Kv1.1−/− mice; 20 mg/kg, twice a day, three consecutive days (PND 46-48) vs no treatment (PND 43-45); Two-way ANOVA, F=27.7, p<0.01
Protocol: Second, candidate drugs that decrease interictal-and/or ictal-like activity in mutant zebrafish lines are then validated in rodent models. Two rodent lines that contain coding deletions in the mammalian orthologs to the zebrafish mutants were used. Candidate drugs were injected intracranially and a decrease in seizure behaviors are monitored using video and […].
Briefly, mice were anesthetized with 3% isofluorane for 2 minutes. Eye glue was applied to the mouse, and anesthesia […] to 2% isofluorane. A “toe pinch” was administered to check anesthetic effect. The surgical area was then shaved while still connected to anesthesia. The anesthesia was increased to 2.5% isofluorane and the anesthetic cone placed over the nose. […]
Vorinostat (Drug #90) treatment reduces seizure occurrence in Kv1.1 null mice. Shown is a representative example of an electrographic seizure recorded from a Kv1.1−/−mouse. Three sets of epidural electroencephalogram (EEG) electrodes simultaneously recorded the signals across the rostral (top trace), medial (middle), and caudal (bottom trace) dorsal aspect of the neocortex. Bar graph of the mean number of seizures per day recorded from three Kv1.1−/−mice. Mice were recorded 24 hours per day for 3 consecutive days (No treatment, PND 43-45) and then received vorinostat injections (20 mg/kg, twice a day) for the next three consecutive days (PND 46-48).

kcna1 mutant zebrafish = assay: EEG / extracellular field recordings on live zebrafish larvae; type: in vivo; settings: kcna1 mutants plus vorinostat (10 μM)
Protocol: First, EEG recordings on live zebrafish were conducted. Briefly, acute seizure-like activity is measured in WT and mutant zebrafish larvae (5 dpf). Extracellular field recordings were obtained from the optic tectum of zebrafish larvae exposed first to vehicle, then washed out and then exposed to candidate drugs. Recordings are collected over 20 minutes and any decrease in small-amplitude “interictal”-like activity and/or large-amplitude “ictal”-like activity is quantified.

## N[C@@H](Cc1ccc(O)c(O)c1)C(=O)O [L-DOPA]
park2 morphants
  effect on increased basal respiration in park2 morphants: reverses this increased bioenergetics to WT levels

## CC(Cc1ccccc1)(NC(=O)CN)c1ccccc1 (stereo not shown) [Remacemide]
kcna1 morphants
  uncovered by the screening platform in genetic model (kcna1 morphants): would not have uncovered
scn1a morphants [1]
  uncovered by the screening platform in genetic model (scn1a morphants): would not have uncovered

## C[C@H](NCc1ccc(OCc2cccc(F)c2)cc1)C(N)=O [Safinamide]
kcna1 morphants
  uncovered by the screening platform in genetic model (kcna1 morphants): would not have uncovered
scn1a morphants [1]
  uncovered by the screening platform in genetic model (scn1a morphants): would not have uncovered

## CC(=O)N1N=C(c2ccc(N)cc2)c2cc3c(cc2C[C@H]1C)OCO3 [Talampanel]
kcna1 morphants
  uncovered by the screening platform in genetic model (kcna1 morphants): would not have uncovered
scn1a morphants [1]
  uncovered by the screening platform in genetic model (scn1a morphants): would not have uncovered

## CCCC(CCC)C(=O)O [Valproic acid]
kcna1 mutants
  effect on increased basal respiration in kcna1 mutant larvae: decreased
[2]
  effect on hyperactivity of kcna1 morphants: no effect
kcna1 morphant zebrafish
  events via which increased respiration was blocked, kcna1 morphants: mitochondrial-mediated events
  effect on elevated basal respiration in kcna1 morphant larvae: blocked
[3]
  events via which elevated basal respiration was blocked, PTZ treated larvae: non-mitochondrial-mediated events
[3]; 24-well plate
  effect on elevated basal respiration in PTZ treated larvae: blocked
scn1a morphants [4]
  effect on increased basal respiration in scn1a morphants: reduce basal respiration to WT levels

## O=C1CCc2ccc(OCCCCN3CCN(c4cccc(Cl)c4Cl)CC3)cc2N1 [aripiprazole]
shank3 morphants
  effect on increased basal respiration in shank3 morphants: Neither resperidon nor aripiprazole were effective

## CC(C)C[C@H]1C(=O)N2CCC[C@H]2[C@]2(O)O[C@](NC(=O)[C@@H]3C=C4c5cccc6[nH]c(Br)c(c56)C[C@H]4N(C)C3)(C(C)C)C(=O)N12 [bromocriptine]
park2 morphants
  effect on increased basal respiration in park2 morphants: no effect

## N.N.[Cl][Pt][Cl] [cisplatin]
cdkn2b morphants
  effect on increased basal respiration in cdkn2b morphants: reverses this increased bioenergetics to WT levels
Smarcbla morphants
  effect on increased basal respiration in smarcbla morphants: reverses this increased bioenergetics to WT levels

## O=P1(N(CCCl)CCCl)NCCCO1 (stereo not shown) [cyclophosphamide]
Smarcbla morphants
  effect on increased basal respiration in smarcbla morphants: no effect

## Cc1nc2n(c(=O)c1CCN1CCC(c3noc4cc(F)ccc34)CC1)CCCC2 [resperidon]
shank3 morphants
  effect on increased basal respiration in shank3 morphants: Neither resperidon nor aripiprazole were effective

## O=C(CCCCCCC(=O)Nc1ccccc1)NO [vorinostat]
kcna1 mutants
  effect on increased basal respiration in kcna1 mutant larvae: decreased
Kv1.1 null mice
  number of seizures per day (video EEG): significantly reduced
kcna1 morphant zebrafish
  events via which increased respiration was blocked, kcna1 morphants: mitochondrial-mediated events
  effect on elevated basal respiration in kcna1 morphant larvae: blocked
kcna1 mutant zebrafish
  effect on seizure-like activity (EEG traces): blocks
